Each structure is given as a SMILES string. Values after ≈ are worked out from the molar mass of the structure shown. Where a SMILES comes first, the peptide text is derived from it. Bridges are numbered along the chain shown (N, C = ends). [ ]: non-standard residue; d: D form. The star is where a group is joined. Tetradecanoyl(3R-OH) = CCCCCCCCCCC[C@@H](O)CC(=O)*; Asp(3S-OH) = N[C@H](C(=O)O)[C@H](O)C(=O)O; Thr(4-Cl) = N[C@H](C(=O)O)[C@H](O)CCl; aThr = C[C@H](O)[C@H](N)C(=O)O; dDab = NCC[C@@H](N)C(=O)O; Dab = NCC[C@H](N)C(=O)O; Dhb = C/C=C(\N)C(=O)O

In assay [1] the test system is Phytophthora parasitica. The assay is described as follows: MIC in PD broth, 24-well plate.
For assay [2], the system named is Phytophthora cinnamomi. The assay is described as follows: MIC in PD broth, 24-well plate.
Assay [3] concerns Pythium ultimum. Put plainly: MIC in PD broth, 24-well plate. Format: cell-based.
Assay [4] deals with MCF-7 (breast cancer cell line). The assay is described as follows: Neutral red cytotoxicity assay. The format is cell-based, human. The note with it: 3 days of exposure, preliminary studies. As to the method:
(§1) Oocydin A was tested also against human cancer cell lines BT-20, MCF 7(American Type Culture Collection, Bethesda, Md., USA) and compared with activity against a normal human mammary human cell line (cc2551 HMEC from Clonetics, San Diego, Calif., USA). These cells were exposed to serial dilutions of oocydin A. After 3 days of exposure, the cells were stained with neutral red and the absorbance measured at 540 nm. For non-adherent cells a modification of the staining protocol of Berent, S. L. et al., (1986) Nucleic Acid Res 14, 8997-9015 was used. The results were recorded as IC50 values.

Assay [5] concerns P. ultimum. Put plainly: Plate bioassay of fractions on PDA. Format: cell-based, Pythium ultimum. The settings on record: contents of the single HPLC peak (retention time 19.7 min) against P. ultimum. As to the method:
Bioassays. A simple plate bioassay test was used to detect bioactivity of various fractions in the purification of oocydin. Aliquots (10-20 μl) of sample were placed on a PDA plate, dried by placement under a hood having positive airflow, and then inoculated with 0.5×0.5 cm plugs of agar containing P. ultimum. The agar plugs were placed in each of the quadrants of the plate and then incubated for 36-48 hr at 23 C. Antioomycetous activity was apparent as a zone of growth inhibition.

In assay [6] the test system is Phytophthora citrophora. The assay is described as follows: MIC in PD broth, 24-well plate. The format is cell-based.
Assay [7] relates to normal human mammary cell line (cc2551 HMEC). Put plainly: Neutral red cytotoxicity assay. The note with it: 3 days of exposure, preliminary studies. The format is cell-based. As to the method: as §1
Assay [8] has as its system Cryptococcus neoformans.
The test system of assay [9] is Candida albicans.
Assay [10] relates to Histoplasma capsulatum.
Assay [11] concerns Alternaria tomato. The format is cell-based.
The test system of assay [12] is Sclerotinia sclerotiorum. The format is cell-based.
The subject of assay [13] is Geotrichum candidum. The format is cell-based.
The subject of assay [14] is Aspergillus fumigatus. The format is cell-based.
Assay [15] has as its system Candida parapsilosis.
Assay [16] concerns Rhizoctonia solani. The format is cell-based.
The test system of assay [17] is Phytophthora spp. Put plainly: MIC in PD broth, 24-well plate. Format: cell-based. The settings on record: the most sensitive Oomycetes.
The subject of assay [18] is Verticillum dahliae. The format is cell-based.

In general, MIC refers to the least concentration at which growth counts as inhibited. For the compound `COCC(=O)N(c1c(C)cccc1C)C(C)C(=O)OC` (racemic) [Metalaxyl, N-(2,6-dimethylphenyl)-N-(methoxyacetyl)-DL-alanine methyl ester, reference compound], the minimum inhibitory concentration (MIC) in assay [1] (Phytophthora nicotianae, read-out: Metalaxyl MIC) is 0.06 µg/mL (≈ 0.215 µM); in assay [2] (Phytophthora cinnamomi, read-out: Metalaxyl MIC), 0.06 µg/mL (≈ 0.215 µM).

Usually IC50 stands for the concentration at which inhibition is half-maximal. A higher IC50 goes with a need for much substance. For the compound `CC(=O)OC1CC(=O)O[C@H]2C[C@H](CC/C(Cl)=C\C/C=C\1C)O[C@H]2[C@@H](O)/C=C(\C)CC(=O)O` (stereo partly shown) [oocydin A], the “Oocydin MIC Test 1” value came out at 0.11 µg/mL in assay [3] (Test 1, no visible growth after 48 or 72 hr at 23° C.); 0.03 µg/mL in assay [6] (Phytophthora citrophora, Test 1); 0.03 µg/mL in [1] (Phytophthora parasitica, Test 1); 0.03 µg/mL in assay [2] (Phytophthora cinnamomi, Test 1). Besides, the “Oocydin MIC Test 2” value in assay [3] (Test 2, no visible growth after 48 or 72 hr at 23° C.) stood at 0.39 µg/mL; in [6] (Phytophthora citrophora, Test 2), 0.02 µg/mL; in assay [1] (Phytophthora parasitica, Test 2), 0.05 µg/mL; in [2] (Phytophthora cinnamomi, Test 2) it was 0.02 µg/mL. In addition, the IC50 in assay [4] came out at 0.42 µg/mL (≈ 0.892 µM); in assay [7], 0.6 µg/mL (≈ 1.27 µM). Further, the bioassay activity result in [5] is on record as “active”. The “Minimum inhibitory concentration (MIC)” value in assay [6] (P. citrophora), in assay [1] (Phytophthora parasitica) and in assay [2] (P. cinnamomi) was “circa 0.03 μg ml^−1” in each case. The effect on growth result in [8], in assay [9], in assay [10], in assay [14] and in [15] was “no effect” each time. For the same compound, the “activity in plate tests” value in assay [11] and in assay [18] was “no activity” each time. The results for the “activity on PDA plates” value in assay [12], in assay [13] and in [16] were “only slight inhibition of growth”, “inactive” and “only slight inhibition of growth”, respectively. In addition, the MIC result in assay [17] is on record as “approximately 0.03 μg ml^−1”.

In the case of `C/C=C1\NC(=O)[C@H]([C@H](C)O)NC(=O)[C@H](CCN)NC(=O)[C@H](CCCCN)NC(=O)[C@H](CC(=O)O)NC(=O)[C@@H](CCN)NC(=O)[C@@H](NC(=O)C[C@H](O)CCCCCCCCCCC)COC(=O)[C@H]([C@H](O)CCl)NC(=O)[C@H]([C@H](O)C(=O)O)NC1=O` [pseudomycin B, reference compound] ({Tetradecanoyl(3R-OH)}-S[dDab]DK[Dab][aThr][Dhb][Asp(3S-OH)][Thr(4-Cl)]; ester 1-C; N-terminus assumed), the minimum inhibitory concentration (MIC) in assay [8], in assay [9], in assay [10] and in [15] was less than 1.0 µg/mL throughout.

The values above are taken from US6660263B2, “Oocydin and methods of use for protection of plants from Oomyocyte pathogens” (HMV Corporation, priority 2000, dated 2003).
